Source: patent US10376481B2, “Compounds and methods for inhibiting NHE-mediated antiport in the treatment of disorders associated with fluid retention or salt overload and gastrointestinal tract disorders” (ARDELYX, INC, priority 2012, dated 2019)

Tested on: gastrointestinal motility
Assay: Gastrointestinal transit (Evans Blue dye) in opioid induced constipation model
Assay type: in vivo, mice
Settings: oral vehicle, loperamide 3 mg/kg subcutaneous, 30-minute period; vehicle/vehicle approximately 70%
Description: Gastrointestinal transit is measured in mice treated with the peripherally acting μ-opioid agonist loperamide to assess the ability of selected example compounds to restore gastrointestinal motility in a model of opioid induced constipation. Approximately eight-week old, female, CD1 […] are purchased from Envigo (Livermore, Calif.), are housed 4 per cage and acclimated for at least 48 hours before study initiation. Animals are fed standard laboratory rodent chow Harlan Teklad Global 2018 (Maddison, Wis.). […] 30 minutes later, animals are euthanized by carbon dioxide inhalation, and the length from the pylorus to cecum (whole length of the small intestine) and the length from the pylorus to the Evans Blue dye front are measured and recorded. For an individual animal, the length travelled by the Evans Blue dye front is divided by the length of the whole small intestine, measured from the pylorus to the cecum, and multiplied by 100, to provide the distance of the small intestine travelled by the dye as a percentage. […] The effect of example compounds on GIT motility in the presence of loperamide is calculated as the ability to restore vehicle/vehicle transit distance from the vehicle/loperamide transit, expressed as a percentage.

Row | Compound | distance of the small intestine travelled by the Evans Blue dye front [%]
1 | CN(C)C(=O)C(CCN1CCC(O)(c2ccc(Cl)cc2)CC1)(c1ccccc1)c1ccccc1 [loperamide] | ~25

Tested on: not given
Assay: not given
Settings: human absorption data, from Ertl et al.; cited from earlier work

Row | Compound | % FA [%]
2 | CCN1CCCC1CNC(=O)c1cc(S(N)(=O)=O)ccc1OC (centres unmarked) [sulpiride] | 36
3 | C=CCOc1ccccc1OCC(O)CNC(C)C (centres unmarked) [oxprenolol] | 97
4 | CC(=O)Nc1ccc(OCC(O)CNC(C)C)cc1 (centres unmarked) [practolol] | 95
5 | Cc1ccccc1N1C(=O)c2cc(S(N)(=O)=O)c(Cl)cc2NC1C (centres unmarked) [metolazone] | 64
6 | OC[C@@H](O)[C@@H](O)[C@H](O)[C@H](O)CO [mannitol] | 26
7 | O=C(O)c1cc(/N=N/c2ccc(O)c(C(=O)O)c2)ccc1O [olsalazine] | 2.3
8 | OC[C@H]1O[C@@H](O[C@@H]2[C@@H](CO)OC(O)(CO)[C@H]2O)[C@H](O)[C@@H](O)[C@H]1O (mixture of isomers) [lactulose] | 0.6
9 | CC(C)NCC(O)COc1cccc2[nH]ccc12 (centres unmarked) [pindolol] | 92
10 | OC[C@H]1O[C@H](OC[C@H]2O[C@H](O[C@]3(CO)O[C@H](CO)[C@@H](O)[C@@H]3O)[C@H](O)[C@@H](O)[C@@H]2O)[C@H](O)[C@@H](O)[C@H]1O [raffinose] | 0.3
11 | NC[C@H]1CC[C@H](C(=O)O)CC1 [tranexamic acid] | 55
12 | O=C(O)c1cc(/N=N/c2ccc(S(=O)(=O)Nc3ccccn3)cc2)ccc1O [sulfasalazine] | 12
13 | O=C(O)P(=O)(O)O [foscarnet] | 17
14 | C=CCc1ccccc1OCC(O)CNC(C)C (centres unmarked) [alprenolol] | 96
